Laboratory results reported in patent publication US20100029761A1, “NOVEL COMPOUNDS, PHARMACEUTICAL COMPOSITIONS CONTAINING SAME, AND METHODS OF USE FOR SAME” (priority 2005, published 2010).
Several values for one entry are separate records, joined by “and”; a condition that tells them apart may be missing. Equal entries are not always repeated.

What was measured:
[1] = test system: β-Oxidation of (1-14C) palmitic acid in cells; assay: β-Oxidation assay, isolation of acid soluble products; format: cell-based; design: unit not given here
Method: A 24 well plate with 1 ml per well was prepared with 2.5×10^5 cells /well. The cells were incubated O/N. The next day, a solubilized palmitate solution was prepared. 50 μls of (1−^14C) Palmitic acid was added to a 2 ml centrifuge tube and dried under nitrogen gas. 2 mls of α-CD (α-Cyclodextran)—10 mg/ml in 10 mM Tris were added. This solution was incubated in a 37° C. water bath for 30 minutes. A hot mix was prepared by adding 25 μl of this solution to 2.5 μls of 200 μM Carnitine and 222.5 μl of serum free medium that is used for cells. The cells were then treated with the test compound in triplicate, and incubated. at 37° C. for 60 minutes. The medium was removed and 250 μl of the hot mix were added. The test compound was added again, and further incubated at 37° C. for 60 minutes. The reaction was stopped with 50 μl of 2.6 N HClO4. The contents of the plate were transferred to a 1.5 ml centrifuge tube, and 50 μl of 4N KOH were then added, and the tube incubated in a 60° C. water bath for 30 min. Sodium acetate (1 M, 75 μl) and sulfuric acid (3N, 50 μl) were added to the solution and vortexed. The tube was spun for 7 minutes at 1000 rpm at room temperature. A portion (225 μl) was removed, and the following were added (vortex after each addition, twice at the end): 938 μl of 1:1 Chloroform: Methanol; 468 μl of Chloroform; 281 μl distilled Water. The tubes were spun at 1000 rpm for 5 minutes. The upper phase was removed into a large glass scintillation vial and 5 ml of Budget solvent (scintillation liquid) was added. The tubes were well vortexed. Finally, ^14C was counted for one minute.

[2] = test system: Raji cells; details: cited from earlier work
[3] = molecular target: rat liver acyl-CoA synthetase; details: read-out: 50% inhibition of rat liver acyl-CoA synthetase; cited from earlier work
[4] = test system: Mycobacterium tuberculosis; details: in vitro; cited from earlier work
[5] = molecular target: viral HIV protease (Human immunodeficiency virus type 1 group M subtype B, UniProt P04585); details: cited from earlier work

## CCCCCCCCC1OC(=O)C(O)=C1C(=O)OCC (stereo not shown) [Compound 1]
[1]; 0.04 ug/ml
  Beta oxidation: 94 and 103 and 120
[1]; 0.19 ug/ml
  Beta oxidation: 108 and 104 and 113
[1]; 3.13 ug/ml
  Beta oxidation: 113 and 109 and 107
[1]; 12.5 ug/ml
  Beta oxidation: 114 and 107 and 100
[1]; 50 ug/ml
  Beta oxidation: 54 and 49 and 45
[1]; .78 ug/ml
  Beta oxidation: 104 and 106

## CCCC=CCC=CC=CC=NN=NO [Triacsin C, 1-hydroxy-3-(E, E, E-2′,4′,7′-undecatrienylidine) triazene]
[2]
  concentration causing growth inhibition in Raji cells: 1.0 µM
[3]
  IC50: 8.7 µM

## C/C=C/C/C=C/CCC(=O)[C@H]1O[C@H]1C(N)=O [cerulenin, (2s, 3R)-2,3-epoxy-4-oxo-7,10 dodecadienoyl amide]
[4]
  activity against Mycobacterium tuberculosis: no activity
[5]
  concentration for inhibition of viral HIV protease: 5 mg/mL
